Reference: patent US5405834A, “Prodrug derivatives of thyrotropin-releasing hormone (TRH)” (priority 1989, dated 1995)
Where two headings read alike, the source gives them in different places.

Legend:
[1] = Chromatographic capacity factor k' by reversed-phase column chromatography (relative lipophilicity); type: physicochemical; settings: Nova-PAK CN HP reversed-phase column; methanol-0.1% phosphoric acid (1:20 v/v) with 10^-3 M triethylamine
Text: The capacity factor k' of a solute is defined as: k'=(tr -t0)/t0 where tr is the retention time of the solute and t0 is the elution time of the solvent.

[2] = Hydrolysis in aqueous buffer solutions (HPLC); type: physicochemical
Protocol: […] The initial concentration of the derivatives was in the range 10^-5 -10^-3 M. At various times an aliquot of the solutions was withdrawn and analyzed by HPLC for remaining (intact) derivative as well as for TRH. For the plasma solutions the aliquot (250 μl) withdrawn was added to 500 μl of a 2% solution of zinc sulphate in methanol-water (1:1 v/v) in order to deproteinize the plasma. After mixing and centrifugation for 3 min at 13,000 rpm, 20 μl of the clear supernatant was analyzed by HPLC as described above. The reaction conditions used for the studies with the pyroglutamyl aminopeptidase enzyme were identical to those previously described by Bundgaard & Moss (1989).
(§1) An HPLC method was used for the determination of TRH and its derivatives. […] For the determination of TRH formed upon hydrolysis of the various derivatives a mobile phase system consisting of acetonitrile-0.1% phosphoric acid (1:20 v/v) containing […] triethylamine was used. The flow rate was 1.5 ml min and the column effluent was monitored at 215 nm. Quantitation of the compounds was done by measuring the peak heights in relation to those of standards chromatographed under the same conditions.

[3] = target: T1, pyroglutamyl aminopeptidase (PAPase I) (Bos taurus, UniProt A0ABI0NU39); experiment: Degradation in buffer pH 7.4 containing pyroglutamyl aminopeptidase; settings: for half-life: calf
T1 sequence (A0ABI0NU39 1-214): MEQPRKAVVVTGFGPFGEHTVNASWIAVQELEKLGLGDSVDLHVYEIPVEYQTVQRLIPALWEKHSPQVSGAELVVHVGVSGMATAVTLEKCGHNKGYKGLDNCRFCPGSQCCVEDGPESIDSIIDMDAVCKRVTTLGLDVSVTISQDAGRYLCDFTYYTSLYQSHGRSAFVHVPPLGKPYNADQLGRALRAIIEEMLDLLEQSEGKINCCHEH
Protocol: (§2) Solutions of various compounds of formula I in aqueous buffer solutions or 80% human plasma solutions as well as in a buffer solution (pH 7.4) containing pyroglutamyl aminopeptidase (a calf liver preparation obtained from Boehringer, Mannheim, F.R.G.) were kept at 37° C. The initial concentration of the derivatives was in the range 10^-5 -10^-3 M. At various times an aliquot of the solutions was withdrawn and analyzed by HPLC for remaining (intact) derivative as well as for TRH. For the plasma solutions the aliquot (250 μl) withdrawn was added to 500 μl of a 2% solution of zinc sulphate in methanol-water (1:1 v/v) in order to deproteinize the plasma. After mixing and centrifugation for 3 min at 13,000 rpm, 20 μl of the clear supernatant was analyzed by HPLC as described above. The reaction conditions used for the studies with the pyroglutamyl aminopeptidase enzyme were identical to those previously described by Bundgaard & Moss (1989).
as §1

[4] = Apparent partition coefficient between 1-octanol and phosphate buffer pH 7.4; settings: for logD: 1-octanol/0.02 M phosphate buffer pH 7.4, pH 7.4
Protocol: (§3) The lipophilicity of the derivatives of the present invention and of TRH was assessed by measuring the apparent partition coefficients (P) of the compounds between 1-octanol and 0.02M phosphate buffer of pH 7.4.

in vitro = settings: for half-life: human, plasma
Protocol: as §2, §1
For the consideration of the derivatives as prodrugs of TRH a crucial point is evidently their degradation pathways. Ideally, the compounds should be hydrolyzed in plasma at the imidazole-protected moiety, releasing TRH in quantitative amounts.
The reactions taking place in plasma can be illustrated as shown in Scheme 1.

[5] = rat, in vivo, iv; cited from earlier work
physchem = settings: pH 7.4
Protocol: as §3

[6] = in vivo, iv; cited from earlier work
[7] = Percutaneous absorption, in vitro diffusion through excised human skin (Franz cells); settings: for steady-state flux: 5% prodrug in aqueous solution (pH 6.0)
Protocol: The feasibility of achieving transdermal delivery of TRH via the prodrugs ot the present invention was evaluated by diffusion experiments in vitro using human skin samples.
Whole abdominal human skin obtained under autopsy was used. The skin was stored at -18° C. and was allowed to thaw gradually at room temperature before use. All subcutaneous fat was removed and the skin cut into pieces. […] The dermal side of the skin was exposed to the receptor medium (5 ml of 0.05M isotonic phosphate buffer solution of pH 7.2) which was stirred magnetically and kept at a constant temperature of 37° C. with a circulating water bath.
The compounds were applied as 5% w/v solutions in 0.05M phosphate buffer (final pH being 6.0) or propylene glycol (100 or 200 μl). At appropriate intervals samples of 1 ml were removed from the receptor phase and replaced with fresh buffer. The samples were immediately analyzed for TRH and prodrug content by HPLC as described above. The permeation studies of each compound in each vehicle were done in triplicate.

| log k' [1] | Half-lives at 37° C., pH 7.4 buffer [2] [h] | half-life [3] [min] | logD [4] | half-life (in vitro) [min] | SMILES | also measured |
| --- | --- | --- | --- | --- | --- | --- |
| 0.85 | 14.2 | 23 | -1.3 | 228 | CCOC(=O)n1cnc(C[C@H](NC(=O)[C@@H]2CCC(=O)N2)C(=O)N2CCC[C@H]2C(N)=O)c1 [C2 H5] |  |
|  | 9.0 | 7 | -0.11 |  | NC(=O)[C@@H]1CCCN1C(=O)[C@H](Cc1cn(C(=O)OCc2ccccc2)cn1)NC(=O)[C@@H]1CCC(=O)N1 [CH2 C6 H5] |  |
|  |  |  | -1.1 |  | NC(=O)[C@@H]1CCCN1C(=O)[C@H](Cc1cn(C(=O)OCCCl)cn1)NC(=O)[C@@H]1CCC(=O)N1 [CH2 CH2 Cl] |  |
|  |  |  | 1.82 |  | CCCCC(CC)COC(=O)n1cnc(C[C@H](NC(=O)[C@@H]2CCC(=O)N2)C(=O)N2CCC[C@H]2C(N)=O)c1 (stereo partly shown) [CH2 CH(C2 H5)C4 H9] |  |
| 1.09 | 19.0 | 11 | -0.44 | 258 | CC(C)COC(=O)n1cnc(C[C@H](NC(=O)[C@@H]2CCC(=O)N2)C(=O)N2CCC[C@H]2C(N)=O)c1 [CH2 CH(CH3)2] |  |
| 0.71 | 9.3 | 12 |  | 168 | COC(=O)n1cnc(C[C@H](NC(=O)[C@@H]2CCC(=O)N2)C(=O)N2CCC[C@H]2C(N)=O)c1 [CH3] | log P ([4]; octanol / 0.02 M phosphate buffer pH 7.4, 21° C.): 1.88 |
|  |  |  | 0.2 |  | CCC(CC)OC(=O)n1cnc(C[C@H](NC(=O)[C@@H]2CCC(=O)N2)C(=O)N2CCC[C@H]2C(N)=O)c1 [CH(C2 H5)2] |  |
|  |  |  | 1.2 |  | CCCC(CCC)OC(=O)n1cnc(C[C@H](NC(=O)[C@@H]2CCC(=O)N2)C(=O)N2CCC[C@H]2C(N)=O)c1 [CH(C3 H7)2] |  |
| 0.96 | 35.8 | 29 | -0.8 | 396 | CC(C)OC(=O)n1cnc(C[C@H](NC(=O)[C@@H]2CCC(=O)N2)C(=O)N2CCC[C@H]2C(N)=O)c1 [CH(CH3)2] |  |
| < 0.4 |  |  |  | 9 | NC(=O)[C@@H]1CCCN1C(=O)[C@H](Cc1cnc[nH]1)NC(=O)[C@@H]1CCC(=O)N1 [TRH, pGlu-L-His-L-ProNH2, reference compound] | plasma half-life [5]: 4 to 6 min; logD (physchem): -2.46; half-life ([3]; isolated enzyme aminopeptidase, pH 7.4): 4 min; Half-lives at 37° C., pyroglutamyl aminopeptidase ([3]; pH 7.4): 4 min; Half-life at 37° C., 80% v/v human plasma (in vitro): 9 min; zero-order rate constant of degradation (in vitro): 7.2e-07 M/min; plasma half-life [6]: 4 to 6 min |
| 1.07 | 19.0 | 11 | -0.47 | 258 | CCCCOC(=O)n1cnc(C[C@H](NC(=O)[C@@H]2CCC(=O)N2)C(=O)N2CCC[C@H]2C(N)=O)c1 [n-C4 H9] |  |
| 1.29 | 17.9 | 8 | 0.71 | 72 | CCCCCCOC(=O)n1cnc(C[C@H](NC(=O)[C@@H]2CCC(=O)N2)C(=O)N2CCC[C@H]2C(N)=O)c1 [n-C6 H13, N-Hexyloxycarbonyl TRH] |  |
| 1.50 | 17.5 | 24 | 1.88 | 30 | CCCCCCCCOC(=O)n1cnc(C[C@H](NC(=O)[C@@H]2CCC(=O)N2)C(=O)N2CCC[C@H]2C(N)=O)c1 [n-C8 H17, N-Octyloxycarbonyl TRH] | time for 10% degradation ([2]; aqueous solution, pH 5.8, 20° C.): 76 h; steady-state flux ([7]; human skin): 0.044±0.006 μmol TRH/h/cm^2; steady-state flux ([7]; human skin, converted from μmol): 16 μg TRH/h/cm^2; flux ([7]; 5% prodrug in propylene glycol, human skin): 3.6 μg/h/cm^2; conversion of applied prodrug to parent TRH during diffusion through skin ([7]; human skin samples): Essentially all |

| SMILES | log k' [1] | Half-lives at 37° C., pH 7.4 buffer [2] [h] | half-life [3] [min] | logD [4] | half-life (in vitro) [min] | also measured |
| --- | --- | --- | --- | --- | --- | --- |
| NC(=O)[C@@H]1CCCN1C(=O)[C@H](Cc1cn(C(=O)OC2CCCCC2)cn1)NC(=O)[C@@H]1CCC(=O)N1 [C6 H10 (cyclohexyl)] | 1.28 | 36.8 | 22 | 0.6 | 384 |  |
